Data: the supplement of paper PMC10307832

Assays:
Assay in all cases: relative viability (nuclei count vs DMSO), 5 days (fraction); higher = more cells survive
Avagacestat + Crizotinib = compound: NC(=O)[C@@H](CCC(F)(F)F)N(Cc1ccc(-c2ncon2)cc1F)S(=O)(=O)c1ccc(Cl)cc1 [Avagacestat] + C[C@@H](Oc1cc(-c2cnn(C3CCNCC3)c2)cnc1N)c1c(Cl)ccc(F)c1Cl [Crizotinib] (partner 1 µM)
Summary of the method: (§1)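 Five library-drug doses in √10 steps were combined with a fixed anchor-drug dose, or a single drug was given alone, by pin tool to lung cancer cell lines in 1536-well plates the day after seeding. Nuclei were stained and counted after 5 days. Relative viability is the nuclei count in treated wells over that in vehicle wells, taken as the median of duplicate plates.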

Avagacestat + Phenformin = compound: NC(=O)[C@@H](CCC(F)(F)F)N(Cc1ccc(-c2ncon2)cc1F)S(=O)(=O)c1ccc(Cl)cc1 [Avagacestat] + N=C(N)NC(=N)NCCc1ccccc1 [Phenformin] (partner 250 µM)
Summary of the method: as §1

Avagacestat + Navitoclax = compound: NC(=O)[C@@H](CCC(F)(F)F)N(Cc1ccc(-c2ncon2)cc1F)S(=O)(=O)c1ccc(Cl)cc1 [Avagacestat] + CC1(C)CCC(c2ccc(Cl)cc2)=C(CN2CCN(c3ccc(C(=O)NS(=O)(=O)c4ccc(N[C@H](CCN5CCOCC5)CSc5ccccc5)c(S(=O)(=O)C(F)(F)F)c4)cc3)CC2)C1 [Navitoclax] (partner 0.5 µM)
Summary of the method: as §1

Avagacestat + Decitabine = compound: NC(=O)[C@@H](CCC(F)(F)F)N(Cc1ccc(-c2ncon2)cc1F)S(=O)(=O)c1ccc(Cl)cc1 [Avagacestat] + Nc1ncn([C@H]2C[C@H](O)[C@@H](CO)O2)c(=O)n1 [Decitabine] (partner 2 µM)
Summary of the method: as §1

| Cell Line | relative viability (Avagacestat + Crizotinib; first compound 0.08 µM) | relative viability (Avagacestat + Crizotinib; first compound 0.253 µM) | relative viability (Avagacestat + Crizotinib; first compound 0.8 µM) | relative viability (Avagacestat + Crizotinib; first compound 2.53 µM) | relative viability (Avagacestat + Crizotinib; first compound 8 µM) | relative viability (Avagacestat + Phenformin; first compound 0.08 µM) | relative viability (Avagacestat + Phenformin; first compound 0.253 µM) | relative viability (Avagacestat + Phenformin; first compound 0.8 µM) | relative viability (Avagacestat + Phenformin; first compound 2.53 µM) | relative viability (Avagacestat + Phenformin; first compound 8 µM) | relative viability (Avagacestat + Navitoclax; first compound 0.08 µM) | relative viability (Avagacestat + Navitoclax; first compound 0.253 µM) | relative viability (Avagacestat + Navitoclax; first compound 0.8 µM) | relative viability (Avagacestat + Navitoclax; first compound 2.53 µM) | relative viability (Avagacestat + Navitoclax; first compound 8 µM) | relative viability (Avagacestat + Decitabine; first compound 0.08 µM) | relative viability (Avagacestat + Decitabine; first compound 0.253 µM) | relative viability (Avagacestat + Decitabine; first compound 0.8 µM) | relative viability (Avagacestat + Decitabine; first compound 2.53 µM) | relative viability (Avagacestat + Decitabine; first compound 8 µM) |
| --- | --- | --- | --- | --- | --- | --- | --- | --- | --- | --- | --- | --- | --- | --- | --- | --- | --- | --- | --- | --- |
| NCI-H2085 | 0.928 | 0.975 | 1 | 1.04 | 0.811 | 0.85 | 0.756 | 0.726 | 0.862 | 0.729 | 1.21 | 1.37 | 1.13 | 1.26 | 1.08 | 0.531 | 0.609 | 0.639 | 0.572 | 0.585 |
| NCI-H2087 | 1.18 | 1.01 | 0.906 | 1.07 | 0.843 | 0.535 | 0.561 | 0.548 | 0.467 | 0.441 | 1.34 | 1.19 | 1.02 | 1.16 | 0.931 | 0.3 | 0.279 | 0.374 | 0.25 | 0.257 |
| NCI-H2126 | 1.07 | 1.14 | 0.977 | 1.04 | 1.04 | 0.509 | 0.516 | 0.569 | 0.561 | 0.511 | 1.02 | 0.899 | 0.875 | 0.798 | 0.832 | 0.615 | 0.661 | 0.577 | 0.575 | 0.611 |
| NCI-H2170 | 1.27 | 1.59 | 1.2 | 1.38 | 0.976 | 0.418 | 0.411 | 0.377 | 0.406 | 0.382 | 0.745 | 0.594 | 0.621 | 0.417 | 0.548 | 0.462 | 0.437 | 0.481 | 0.495 | 0.501 |
| NCI-H2347 | 0.693 | 0.74 | 0.692 | 0.511 | 0.66 | 0.363 | 0.537 | 0.602 | 0.448 | 0.357 | 0.907 | 0.866 | 0.923 | 0.663 | 0.797 | 0.661 | 0.654 | 0.631 | 0.553 | 0.6 |
| NCI-H2405 | 0.881 | 0.825 | 0.81 | 0.849 | 0.853 | 0.393 | 0.45 | 0.44 | 0.381 | 0.408 | 0.864 | 0.937 | 0.779 | 0.638 | 0.797 | 0.758 | 0.703 | 0.692 | 0.673 | 0.684 |
| NCI-H3122 | 0.318 | 0.287 | 0.291 | 0.289 | 0.288 | 0.405 | 0.391 | 0.428 |  | 0.405 | 0.95 | 1.09 | 1.08 | 1.01 | 1.03 | 0.513 | 0.428 | 0.445 | 0.402 | 0.37 |
| PC-3 [JPC-3] | 1.15 | 1.25 | 1.16 | 1.05 | 0.993 | 0.461 | 0.443 | 0.487 | 0.472 | 0.521 | 0.908 | 0.885 | 0.864 | 0.821 | 0.761 | 0.857 | 0.808 | 0.824 | 0.789 | 0.87 |
| PC-14 | 0.995 | 0.97 | 0.936 | 1.04 | 0.829 | 0.768 | 0.728 | 0.86 |  | 0.628 | 1.19 | 1.19 | 1.12 | 0.97 | 0.899 | 0.219 | 0.244 | 0.218 | 0.272 | 0.244 |
| RERF-LC-KJ | 0.799 | 0.839 | 0.924 | 0.792 | 0.761 | 0.435 | 0.495 | 0.412 | 0.431 | 0.367 | 1.11 | 0.878 | 0.874 | 0.982 | 1.1 | 0.686 | 0.705 | 0.622 | 0.686 | 0.645 |
| SK-LU-1 | 0.843 | 0.858 | 0.946 | 0.786 | 0.753 | 0.539 | 0.499 | 0.523 | 0.353 | 0.474 | 1.11 | 1.08 | 1 | 0.706 | 0.93 | 0.66 | 0.638 | 0.699 | 0.53 | 0.552 |
| SK-MES-1 | 0.943 | 1.06 | 0.97 | 0.902 | 0.915 | 0.739 | 0.827 | 0.721 | 0.635 | 0.606 | 1.32 | 1.29 | 1.27 | 1.2 | 1.27 | 0.367 | 0.415 | 0.373 | 0.329 | 0.311 |
| SW 1573 | 0.844 | 0.905 | 0.777 | 0.816 | 0.709 | 0.498 | 0.431 | 0.366 | 0.369 | 0.341 | 1.3 | 0.97 | 0.989 | 1.04 | 0.974 | 0.539 | 0.582 | 0.664 | 0.446 | 0.59 |
| UMC-11 | 0.632 | 0.664 | 0.749 | 0.582 | 0.585 | 0.36 | 0.352 | 0.364 | 0.341 | 0.321 | 0.324 | 0.316 | 0.321 | 0.286 | 0.299 | 0.657 | 0.57 | 0.585 | 0.602 | 0.597 |
